Laboratory results: patent US20240067645A1, “HETEROCYCLIC COMPOUND AS DIACYLGLYCEROL KINASE INHIBITOR AND USE THEREOF” (LG CHEM, LTD., priority 2020, published 2024)

What follows are compounds tested against DGKα (Homo sapiens (Human), UniProt P23743) (assay: Measurement of inhibitory effect against DGKα enzyme (ADP-Glo)). Conditions: not given.
Assay type: biochemical
Procedure: Experimental Example: Measurement of Inhibitory Effect Against DGKα Enzyme
First, 3×OAG (3 mM)/ATP (0.45 mM) substrate solution was prepared from 1× substrate assay buffer (40 mM MOPS (pH 7.2), 20 mM MgCl2, 1 mM DTT, 0.4 mM CaCl2), 3 mM sodium deoxycholate, 100 mM NaCl, 0.1 mg/mL BSA, 0.12% NP-40), and vortexed thoroughly for 3 minutes to induce detergent-lipid micelle formation. Then, 3×DGKα (7.5 nM) enzyme solution was prepared from 2× enzyme assay buffer (80 mM MOPS (pH 7.2), 2 mM DTT, 200 mM NaCl, 0.2 mg/mL BSA) and vortexed for a short time.
After preparing the above two solutions, a half-area opaque 96-well assay plate was prepared, and 10 μL of 3× diluted compound solution (30 μM to 0 μM) was transferred to each well. Next, 10 μL of 3×DGK enzyme solution was transferred to the same plate, mixed by pipetting, and then 10 μL of 3×OAG/ATP substrate solution was added to the assay plate and mixed well. The plate was incubated at room temperature for 20 minutes for the enzyme reaction. Next, 15 μL of ADP-Glo reagent was added to each well and mixed by pipetting, followed by incubating the plate at room temperature for 40 minutes to deplete the remaining ATPs. After this step, 30 μL of kinase detection reagent was added and mixed, and the plate was incubated at room temperature for an additional 20 minutes and luminescence was measured by Envision to calculate the IC50 value of each compound.
The measurement results are represented in Table 1 (+: IC50>5 μM, ++: 5 μM>IC50>300 nM, +++: IC50<300 nM).

Chain of DGKα (P23743 whole entry, species assumed): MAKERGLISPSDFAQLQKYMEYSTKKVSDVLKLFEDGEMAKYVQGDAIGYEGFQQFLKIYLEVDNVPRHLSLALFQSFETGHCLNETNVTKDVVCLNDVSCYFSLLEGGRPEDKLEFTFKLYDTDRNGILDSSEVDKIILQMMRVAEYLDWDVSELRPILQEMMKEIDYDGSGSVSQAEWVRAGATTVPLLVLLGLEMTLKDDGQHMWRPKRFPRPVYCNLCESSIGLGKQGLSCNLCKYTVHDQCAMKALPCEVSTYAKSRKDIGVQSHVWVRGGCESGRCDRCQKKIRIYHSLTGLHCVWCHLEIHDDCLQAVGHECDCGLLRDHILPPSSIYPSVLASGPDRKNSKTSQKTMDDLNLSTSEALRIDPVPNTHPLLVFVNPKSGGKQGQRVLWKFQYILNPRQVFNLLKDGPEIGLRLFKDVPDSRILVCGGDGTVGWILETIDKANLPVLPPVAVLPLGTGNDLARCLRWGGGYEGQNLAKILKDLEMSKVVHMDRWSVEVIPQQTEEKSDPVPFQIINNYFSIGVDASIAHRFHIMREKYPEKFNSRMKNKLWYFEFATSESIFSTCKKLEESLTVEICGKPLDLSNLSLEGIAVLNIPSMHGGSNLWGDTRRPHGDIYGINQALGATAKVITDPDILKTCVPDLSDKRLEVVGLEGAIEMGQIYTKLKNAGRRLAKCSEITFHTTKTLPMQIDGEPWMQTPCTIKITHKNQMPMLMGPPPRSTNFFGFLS

Compound Cn1c(=O)c(=O)n([C@H]2C[C@H]3CC[C@@H](C2)N3Cc2ccc(OC(F)(F)F)cc2)c2ncc(Cl)cc21 [Example 57, 7-chloro-1-methyl-4-((1R,3r,5S)-8-(4-(trifluoromethoxy)benzyl)-8-azabicyclo[3.2.1]octan-3-yl)-1,4-dihydropyrido[2,3-b]pyrazine-2,3-dione] has an IC50 of 300 to 5000 nM.

Same assay, conditions: DGKα enzyme, ADP-Glo luminescence, OAG/ATP substrate, 20 min room temperature; read-out: IC50

First: Cn1c(=O)c(=O)n(C2CCN(Cc3cccc4nccnc34)CC2)c2ncc(Cl)cc21 [Example 33, 7-chloro-1-methyl-4-(1-(quinoxalin-5-ylmethyl)piperidin-4-yl)-1,4-dihydropyrido[2,3-b]pyrazine-2,3-dione]
Second: Cn1c(=O)c(=O)n(C2CCN(Cc3cccc4c3CCCC4)CC2)c2ncc(Cl)cc21 [Example 37, 7-chloro-1-methyl-4-(1-((5,6,7,8-tetrahydronaphthalen-1-yl)methyl)piperidin-4-yl)-1,4-dihydropyrido[2,3-b]pyrazine-2,3-dione]
The IC50 of the first is higher: 300 to 5000 nM for the first, < 300 nM for the second.

Cn1cc(-c2cnc3c(c2)n(C)c(=O)c(=O)n3C2CCN(Cc3ccc(OC(F)(F)F)cc3)CC2)cn1 [Example 36, 1-methyl-7-(1-methyl-1H-pyrazol-4-yl)-4-(1-(4-(trifluoromethoxy)benzyl)piperidin-4-yl)-1,4-dihydropyrido[2,3-b]pyrazine-2,3-dione] and Cc1cnc2c(c1)n(C)c(=O)c(=O)n2C1CCN(Cc2ccc(OC(F)(F)F)cc2)CC1 [Example 61, 1,7-dimethyl-4-(1-(4-(trifluoromethoxy)benzyl)piperidin-4-yl)-1,4-dihydropyrido[2,3-b]pyrazine-2,3-dione] cannot be ordered by IC50: < 300 nM for the first, < 300 nM for the second.

Compared with Cn1c(=O)c(=O)n(C2CCN(Cc3ccc(OC(F)(F)F)cc3)CC2)c2nc(C#N)c(Br)cc21 [Example 38, 7-bromo-1-methyl-2,3-dioxo-4-(1-(4-(trifluoromethoxy)benzyl)piperidin-4-yl)-1,2,3,4-tetrahydropyrido[2,3-b]pyrazine-6-carbonitrile], Cc1nc2c(cc1Br)n(C)c(=O)c(=O)n2C1CCN(Cc2ccc(OC(F)(F)F)cc2)CC1 [Example 51, 7-bromo-1,6-dimethyl-4-(1-(4-(trifluoromethoxy)benzyl)piperidin-4-yl)-1,4-dihydropyrido[2,3-b]pyrazine-2,3-dione] is lower in IC50: 300 to 5000 nM for the first, < 300 nM for the second.

Cn1c(=O)c(=O)n(C2CCN(Cc3ccc(OC(F)(F)F)cc3)CC2)c2ncc(-c3ccccc3F)cc21 [Example 39, 7-(2-fluorophenyl)-1-methyl-4-(1-(4-(trifluoromethoxy)benzyl)piperidin-4-yl)-1,4-dihydropyrido[2,3-b]pyrazine-2,3-dione] and Cn1c(=O)c(=O)n(C2CCN(Cc3ccc(OC(F)(F)F)cc3)CC2)c2nc(-c3ccccc3F)c(Cl)cc21 [Example 41, 7-chloro-6-(2-fluorophenyl)-1-methyl-4-(1-(4-(trifluoromethoxy)benzyl)piperidin-4-yl)-1,4-dihydropyrido[2,3-b]pyrazine-2,3-dione] cannot be ordered by IC50: < 300 nM for the first, < 300 nM for the second.

First: Cn1c(=O)c(=O)n(C2CCN(Cc3ccc(OC(F)(F)F)cc3)CC2)c2ncc(C3CC3)cc21 [Example 40, 7-cyclopropyl-1-methyl-4-(1-(4-(trifluoromethoxy)benzyl)piperidin-4-yl)-1,4-dihydropyrido[2,3-b]pyrazine-2,3-dione]
Second: Cn1c(=O)c(=O)n(C2CCN(Cc3ccc(OC(F)(F)F)cc3)CC2)c2ncc(F)cc21 [Example 59, 7-fluoro-1-methyl-4-(1-(4-(trifluoromethoxy)benzyl)piperidin-4-yl)-1,4-dihydropyrido[2,3-b]pyrazine-2,3-dione]
The IC50 of the first is higher: > 5000 nM for the first, 300 to 5000 nM for the second. The second is the more potent here.

Compared with Cn1c(=O)c(=O)n(C2CCN(Cc3ccc(OC(F)(F)F)cc3)CC2)c2nc(C#N)c(C3CC3)cc21 [Example 44, 7-cyclopropyl-1-methyl-2,3-dioxo-4-(1-(4-(trifluoromethoxy)benzyl)piperidin-4-yl)-1,2,3,4-tetrahydropyrido[2,3-b]pyrazine-6-carbonitrile], Cc1nc2c(cc1Cl)n(C)c(=O)c(=O)n2C1CCN(Cc2ccc(OC(F)(F)F)cc2)CC1 [Example 50, 7-chloro-1,6-dimethyl-4-(1-(4-(trifluoromethoxy)benzyl)piperidin-4-yl)-1,4-dihydropyrido[2,3-b]pyrazine-2,3-dione] is lower in IC50: 300 to 5000 nM for the first, < 300 nM for the second. The second is the more potent here.

Cn1c(=O)c(=O)n(C2CCN(C(c3cccc(Cl)c3)c3cccc(Cl)c3)CC2)c2ncc(Cl)cc21 [Example 45, 4-(1-(bis(3-chlorophenyl)methyl)piperidin-4-yl)-7-chloro-1-methyl-1,4-dihydropyrido[2,3-b]pyrazine-2,3-dione] and Cn1c(=O)c(=O)n(C2CCN(Cc3ccc4c(c3)OCCO4)CC2)c2ncc(Cl)cc21 [Example 46, 7-chloro-4-(1-((2,3-dihydrobenzo[b][1,4]dioxin-6-yl)methyl)piperidin-4-yl)-1-methyl-1,4-dihydropyrido[2,3-b]pyrazine-2,3-dione] fall in the same range of IC50: 300 to 5000 nM for the first, 300 to 5000 nM for the second.

First: Cn1c(=O)c(=O)n(C2CCN(Cc3ccc(OC(F)(F)F)cc3)CC2)c2ncc(C#N)cc21 [Example 47, 1-methyl-2,3-dioxo-4-(1-(4-(trifluoromethoxy)benzyl)piperidin-4-yl)-1,2,3,4-tetrahydropyrido[2,3-b]pyrazine-7-carbonitrile]
Second: CC(=O)c1cnc2c(c1)n(C)c(=O)c(=O)n2C1CCN(Cc2ccc(OC(F)(F)F)cc2)CC1 [Example 48, 7-acetyl-1-methyl-4-(1-(4-(trifluoromethoxy)benzyl)piperidin-4-yl)-1,4-dihydropyrido[2,3-b]pyrazine-2,3-dione]
The IC50 of the first is higher: 300 to 5000 nM for the first, < 300 nM for the second. The second is the more potent here.

First: C[C@@H]1CC(n2c(=O)c(=O)n(C)c3cc(Cl)cnc32)[C@@H](C)CN1Cc1ccc(OC(F)(F)F)cc1 (stereo partly shown) [Example 49]
Second: CN(C)C(=O)c1cnc2c(c1)n(C)c(=O)c(=O)n2C1CCN(Cc2ccc(OC(F)(F)F)cc2)CC1 [Example 64, N,N,1-trimethyl-2,3-dioxo-4-(1-(4-(trifluoromethoxy)benzyl)piperidin-4-yl)-1,2,3,4-tetrahydropyrido[2,3-b]pyrazine-7-carboxamide]
The IC50 of the first is lower: 300 to 5000 nM for the first, > 5000 nM for the second.

First: CC(C)n1cc(CN2CCC(n3c(=O)c(=O)n(C)c4cc(Cl)cnc43)CC2)cn1 [Example 52, 7-chloro-4-(1-((1-isopropyl-1H-pyrazol-4-yl)methyl)piperidin-4-yl)-1-methyl-1,4-dihydropyrido[2,3-b]pyrazine-2,3-dione]
Second: Cn1c(=O)c(=O)n(C2CCN(Cc3ccc(OC(F)(F)F)cc3)CC2)c2ncc(C(=O)O)cc21 [Example 62, 1-methyl-2,3-dioxo-4-(1-(4-(trifluoromethoxy)benzyl)piperidin-4-yl)-1,2,3,4-tetrahydropyrido[2,3-b]pyrazine-7-carboxylic acid]
The IC50 of the first is higher: > 5000 nM for the first, 300 to 5000 nM for the second. The second is the more potent here.

First: CC(=O)c1ccc2c(n1)n(C1CCN(Cc3ccc(OC(F)(F)F)cc3)CC1)c(=O)c(=O)n2C [Example 53, 6-acetyl-1-methyl-4-(1-(4-(trifluoromethoxy)benzyl)piperidin-4-yl)-1,4-dihydropyrido[2,3-b]pyrazine-2,3-dione]
Second: Cn1c(=O)c(=O)n(C2CCN(Cc3ccc(OC(F)(F)F)cc3)CC2)c2nc(Cl)ccc21 [Example 54, 6-chloro-1-methyl-4-(1-(4-(trifluoromethoxy)benzyl)piperidin-4-yl)-1,4-dihydropyrido[2,3-b]pyrazine-2,3-dione]
The IC50 of the first is higher: 300 to 5000 nM for the first, < 300 nM for the second.

Compared with COc1ccc2c(n1)n(C1CCN(Cc3ccc(OC(F)(F)F)cc3)CC1)c(=O)c(=O)n2C [Example 55, 6-methoxy-1-methyl-4-(1-(4-(trifluoromethoxy)benzyl)piperidin-4-yl)-1,4-dihydropyrido[2,3-b]pyrazine-2,3-dione], CC(C)Oc1ccc2c(n1)n(C1CCN(Cc3ccc(OC(F)(F)F)cc3)CC1)c(=O)c(=O)n2C [Example 58, 6-isopropoxy-1-methyl-4-(1-(4-(trifluoromethoxy)benzyl)piperidin-4-yl)-1,4-dihydropyrido[2,3-b]pyrazine-2,3-dione] is higher in IC50: 300 to 5000 nM for the first, > 5000 nM for the second.

Compared with Cc1ccnc2c1n(C)c(=O)c(=O)n2C1CCN(Cc2ccc(OC(F)(F)F)cc2)CC1 [Example 56, 1,8-dimethyl-4-(1-(4-(trifluoromethoxy)benzyl)piperidin-4-yl)-1,4-dihydropyrido[2,3-b]pyrazine-2,3-dione], COC(=O)c1cnc2c(c1)n(C)c(=O)c(=O)n2C1CCN(Cc2ccc(OC(F)(F)F)cc2)CC1 [Example 60, methyl 1-methyl-2,3-dioxo-4-(1-(4-(trifluoromethoxy)benzyl)piperidin-4-yl)-1,2,3,4-tetrahydropyrido[2,3-b]pyrazine-7-carboxylate] is lower in IC50: > 5000 nM for the first, < 300 nM for the second. The second is the more potent here.

In the case of CN(C)CCNC(=O)c1cnc2c(c1)n(C)c(=O)c(=O)n2C1CCN(Cc2ccc(OC(F)(F)F)cc2)CC1 [Example 63, N-(2-(dimethylamino)ethyl)-1-methyl-2,3-dioxo-4-(1-(4-(trifluoromethoxy)benzyl)piperidin-4-yl)-1,2,3,4-tetrahydropyrido[2,3-b]pyrazine-7-carboxamide], the IC50 is reported as > 5000 nM.
